Activity calls are given as the source filed them.
Experiments:
Leucine aminopeptidase = target: T1, Leucine aminopeptidase (Plasmodium falciparum 3D7, UniProt Q8IL11); assay: P. falciparum M17LAP inhibitors, primary screen, biochemical, fluorogenic H-Leu-NHMec substrate, 1536-well (AID 1619); format: functional
T1 sequence (Q8IL11 whole entry): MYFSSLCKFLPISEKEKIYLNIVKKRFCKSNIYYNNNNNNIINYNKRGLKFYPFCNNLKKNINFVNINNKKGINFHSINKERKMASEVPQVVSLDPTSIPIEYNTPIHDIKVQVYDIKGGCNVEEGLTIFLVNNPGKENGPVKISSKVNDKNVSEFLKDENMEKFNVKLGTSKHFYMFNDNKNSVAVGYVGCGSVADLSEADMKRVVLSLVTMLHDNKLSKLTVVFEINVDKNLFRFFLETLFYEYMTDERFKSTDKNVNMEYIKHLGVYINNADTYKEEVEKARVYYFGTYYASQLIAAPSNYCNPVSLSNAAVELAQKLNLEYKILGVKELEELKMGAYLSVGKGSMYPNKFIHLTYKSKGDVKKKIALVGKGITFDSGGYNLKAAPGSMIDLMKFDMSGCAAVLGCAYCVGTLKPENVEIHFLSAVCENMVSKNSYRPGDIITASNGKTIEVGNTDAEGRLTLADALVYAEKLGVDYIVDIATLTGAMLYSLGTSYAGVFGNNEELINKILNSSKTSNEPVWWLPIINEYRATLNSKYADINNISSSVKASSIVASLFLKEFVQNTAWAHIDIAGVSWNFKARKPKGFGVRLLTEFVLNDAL

[1] = target: T2, Polyadenylate-binding protein 1 (Homo sapiens, UniProt P11940); assay: MLLE domain peptide-binding blockers, IC50 – biochemical, fluorescence polarization, FITC-PAM2 peptide, dose response (AID 602259); format: functional; settings: read-out: IC50_Mean
[2] = target: T2, Polyadenylate-binding protein 1; assay: MLLE binding blockers, Cy5 peptide tracer – biochemical, fluorescence polarization, Cy5-PAM2 peptide, secondary, miRNA deadenylation inhibitor project, dose response (AID 602260); format: functional; settings: read-out: IC50_Mean
[3] = blockers of HIV-1 envelope-mediated cell-cell fusion – cherry-pick, dose response (AID 652057); format: functional, cell-based
[4] = HIV-1 AD8 envelope cell-cell fusion blockers – cherry-pick, dose response (AID 652062); format: functional, cell-based;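 also: luciferase signal from cell-cell fusion driven by HIV-1 clade B AD8 Env; potency is for inhibitors of fusion seen as a drop in luminescence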
[5] = Luminescence Cell-Based Dose Response HTS to Identify Inhibitors of 5'UTR Stem-Loop Driven Prion Protein mRNA Translation in H4 Neuroglioblastoma Cells. [Related pubchem assays: 1827 (Project Summary), 1813 (Primary HTS)]; format: functional
[6] = alpha-synuclein stem-loop luciferase translation blockers – H4 neuroglioma cells, luminescence, confirmation (AID 1988); format: functional, cell-based
[7] = luciferase reporter signal suppression in cells – H4 neuroglioma cells, luminescence, dose response (AID 1990); format: functional, cell-based
[8] = target: Induced myeloid leukemia cell differentiation protein Mcl-1 (Homo sapiens, UniProt Q07820); format: functional
H9c2 = assay: cells; format: functional, cell-based; settings: Rattus norvegicus, H9c2, Myocardium;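 also: confirmatory concentration-response retest of ultra-high-throughput screening hits for modulation of myocardial damage; cell death induced by hydrogen peroxide oxidative stress; compound pretreatment for 60 min then peroxide exposure for 2 h; potency is for protecting the cells against peroxide damage rather than for killing them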
[9] = target: Glyceraldehyde-3-phosphate dehydrogenase (Homo sapiens, UniProt P04406)
[10] = viability of uninfected HEp-2 cells – cell-based, HTS, cytotoxicity control for RSV inhibitor project, dose response (AID 2410); format: functional; settings: human respiratory syncytial virus
Cytochrome P450 2D6 = Cytochrome P450 2D6 (Homo sapiens, UniProt P10635);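 also: CYP2D6 member of a cytochrome P450 panel assay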
Streptokinase A = target: T3, Streptokinase A (Streptococcus pyogenes serotype M1, UniProt P10520); assay: viability-normalized secreted streptokinase activity reduction – plasminogen activation absorbance, OD405, dose response (AID 1914); format: functional, Streptococcus pyogenes M1 GAS;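 also: secreted streptokinase activity via plasminogen activation per viability signal from cell pellet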
T3 sequence (P10520 whole entry): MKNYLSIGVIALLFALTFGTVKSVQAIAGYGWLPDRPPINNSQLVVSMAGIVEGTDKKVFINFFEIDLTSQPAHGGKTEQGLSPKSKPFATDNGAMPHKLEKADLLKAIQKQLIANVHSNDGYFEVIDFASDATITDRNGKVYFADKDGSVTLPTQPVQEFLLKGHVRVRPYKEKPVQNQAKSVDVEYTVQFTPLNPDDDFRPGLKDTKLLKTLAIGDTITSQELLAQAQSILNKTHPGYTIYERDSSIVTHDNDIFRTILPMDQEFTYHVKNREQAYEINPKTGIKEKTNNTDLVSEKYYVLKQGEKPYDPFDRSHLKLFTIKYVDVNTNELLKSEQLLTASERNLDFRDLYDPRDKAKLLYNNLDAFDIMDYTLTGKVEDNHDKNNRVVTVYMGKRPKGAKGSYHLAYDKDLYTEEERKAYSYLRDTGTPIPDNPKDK

[11] = test system: Streptococcus sp. 'group A'; assay: Streptococcus pyogenes SK(-)GAS viability under kanamycin – luminescence, BacTiterGlo, confirmation, counter-screen for streptokinase expression inhibitor project, dose response (AID 1900); format: functional, organism-based
Streptococcus = assay: GAS UMAA2166 growth inhibition – luminescence, BacTiterGlo, counter-screen for streptokinase expression inhibitor project, dose response (AID 1915); format: functional, organism-based;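 also: potency for reduction of bacterial viability or growth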
BJ [12] = assay: BJ-TERT fibroblast viability loss – cell-based, RAS-independent, luminescence, dose response (AID 1933); format: functional; settings: Homo sapiens
BJ [13] = assay: cells; format: functional, cell-based; settings: Homo sapiens
BJ [14] = assay: BJ-TERT-LT-ST fibroblast viability loss – cell-based, RAS-independent, luminescence, dose response (AID 1935); format: functional; settings: Homo sapiens;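 also: BJ fibroblasts immortalized with TERT plus LT and ST oncogenes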
[15] = DRD fibroblast viability loss – cell-based, non-viral oncogenic, luminescence, dose response (AID 1934); format: functional; settings: Homo sapiens
[16] = target: T4, Heat shock factor protein 1 (Mus musculus, UniProt P38532); assay: enhancement of HSF1-driven luciferase signal – cell-based, NIH3T3, luminescence, dose retest, confirmation (AID 435004); format: functional;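 also: stress induced by proteasome inhibitor MG132 added 30 min after compound; luciferase reporter driven by HSF1 response element in NIH3T3 cells; actives raise luminescence as potentiators of the MG132 stress response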
T4 sequence (P38532 whole entry): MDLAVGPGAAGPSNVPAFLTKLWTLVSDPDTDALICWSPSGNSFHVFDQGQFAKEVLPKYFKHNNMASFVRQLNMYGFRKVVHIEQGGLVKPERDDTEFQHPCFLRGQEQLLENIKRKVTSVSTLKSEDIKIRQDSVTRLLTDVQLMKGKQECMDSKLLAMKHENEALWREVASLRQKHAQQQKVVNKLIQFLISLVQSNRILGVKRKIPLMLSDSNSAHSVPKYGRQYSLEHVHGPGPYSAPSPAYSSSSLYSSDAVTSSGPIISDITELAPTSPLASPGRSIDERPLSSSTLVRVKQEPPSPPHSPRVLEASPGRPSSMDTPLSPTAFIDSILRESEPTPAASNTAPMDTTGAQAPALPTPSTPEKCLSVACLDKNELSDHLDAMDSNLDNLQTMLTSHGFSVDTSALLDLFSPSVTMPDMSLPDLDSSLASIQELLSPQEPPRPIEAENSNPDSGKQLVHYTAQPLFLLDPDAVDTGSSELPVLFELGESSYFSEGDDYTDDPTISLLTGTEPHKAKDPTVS

Chain of Induced myeloid leukemia cell differentiation protein Mcl-1 (Q07820 whole entry): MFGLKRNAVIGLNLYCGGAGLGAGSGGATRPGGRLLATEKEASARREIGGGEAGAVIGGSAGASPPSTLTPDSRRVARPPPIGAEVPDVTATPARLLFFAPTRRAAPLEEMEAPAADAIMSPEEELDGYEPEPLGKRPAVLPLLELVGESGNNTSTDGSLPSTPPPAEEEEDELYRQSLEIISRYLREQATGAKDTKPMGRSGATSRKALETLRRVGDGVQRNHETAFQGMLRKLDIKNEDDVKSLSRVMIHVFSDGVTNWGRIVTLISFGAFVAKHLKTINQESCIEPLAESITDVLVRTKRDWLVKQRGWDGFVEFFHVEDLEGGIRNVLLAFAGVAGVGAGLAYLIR
T2 sequence (P11940 whole entry, the tested form may be a part): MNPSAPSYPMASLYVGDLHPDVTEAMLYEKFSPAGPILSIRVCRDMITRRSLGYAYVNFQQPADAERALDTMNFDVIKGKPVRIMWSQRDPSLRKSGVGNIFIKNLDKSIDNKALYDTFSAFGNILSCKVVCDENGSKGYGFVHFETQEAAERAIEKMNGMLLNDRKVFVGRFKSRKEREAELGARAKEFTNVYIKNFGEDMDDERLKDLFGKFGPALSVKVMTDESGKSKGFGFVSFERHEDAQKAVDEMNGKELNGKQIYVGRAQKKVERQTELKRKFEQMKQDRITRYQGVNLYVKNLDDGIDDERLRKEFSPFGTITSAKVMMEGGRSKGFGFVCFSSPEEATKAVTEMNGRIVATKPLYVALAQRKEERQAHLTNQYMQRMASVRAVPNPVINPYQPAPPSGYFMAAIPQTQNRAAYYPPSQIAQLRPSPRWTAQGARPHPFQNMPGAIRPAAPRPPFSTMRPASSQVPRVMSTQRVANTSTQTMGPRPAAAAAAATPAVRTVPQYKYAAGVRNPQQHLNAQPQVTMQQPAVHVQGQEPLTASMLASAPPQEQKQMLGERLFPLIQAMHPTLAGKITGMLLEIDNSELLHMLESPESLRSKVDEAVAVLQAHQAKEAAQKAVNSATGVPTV
Chain of Glyceraldehyde-3-phosphate dehydrogenase (P04406 whole entry): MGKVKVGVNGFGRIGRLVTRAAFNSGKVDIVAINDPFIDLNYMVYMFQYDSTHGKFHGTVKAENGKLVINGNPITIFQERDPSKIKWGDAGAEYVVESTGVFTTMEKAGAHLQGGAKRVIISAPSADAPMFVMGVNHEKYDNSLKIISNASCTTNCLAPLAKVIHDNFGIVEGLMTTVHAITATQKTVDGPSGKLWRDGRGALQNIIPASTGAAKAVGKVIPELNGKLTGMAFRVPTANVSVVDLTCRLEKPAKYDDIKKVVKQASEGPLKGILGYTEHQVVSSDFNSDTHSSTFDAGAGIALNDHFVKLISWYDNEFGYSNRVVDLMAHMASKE
Chain of Cytochrome P450 2D6 (P10635 whole entry): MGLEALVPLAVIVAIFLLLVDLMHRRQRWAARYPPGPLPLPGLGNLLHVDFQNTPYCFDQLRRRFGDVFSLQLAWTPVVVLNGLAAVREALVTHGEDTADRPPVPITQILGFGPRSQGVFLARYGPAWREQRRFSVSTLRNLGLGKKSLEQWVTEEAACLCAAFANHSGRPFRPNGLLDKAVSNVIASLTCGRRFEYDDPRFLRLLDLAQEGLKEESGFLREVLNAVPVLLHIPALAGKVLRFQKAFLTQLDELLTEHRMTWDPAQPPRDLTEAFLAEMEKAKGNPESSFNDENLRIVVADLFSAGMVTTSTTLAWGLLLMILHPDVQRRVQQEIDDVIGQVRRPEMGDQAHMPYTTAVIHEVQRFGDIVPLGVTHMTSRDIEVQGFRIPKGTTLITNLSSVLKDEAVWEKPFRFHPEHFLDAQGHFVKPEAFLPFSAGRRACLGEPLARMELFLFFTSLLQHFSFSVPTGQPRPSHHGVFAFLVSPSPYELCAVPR

Structure (SMILES): Cc1cc(C(=O)COC(=O)c2ccc[nH]c2=O)c(C)n1C1CC1
- IC50 (Leucine aminopeptidase): 13.3 µM (active)

Structure (SMILES): O=C(NC(=S)NNS(=O)(=O)c1ccccc1)c1ccccc1[N+](=O)[O-]
- IC50 (Leucine aminopeptidase): 29.9 µM (active)
- IC50 [1]: > 66 µM (inactive)
- IC50 [2]: > 66 µM (inactive)

Structure (SMILES): O=C(c1ccc(Cl)s1)N1CCN(c2nc3ccccc3s2)CC1
- AC50 [3]: 55.7 µM (active)
- AC50 [4]: 11.9 µM (active)

Structure (SMILES): COC(=O)c1ccccc1NC(=S)NC(=O)c1ccc2c(c1)OCO2
- IC50 [1]: > 66 µM (inactive)
- IC50 [2]: > 66 µM (inactive)

Structure (SMILES): CC(C)c1ccc2[nH]c(O)c(N=NC(=O)c3cccc(S(=O)(=O)Nc4ccc(Cl)cc4)c3)c2c1
- EC50 [5]: > 120 µM (not active)
- EC50 [6]: > 120 µM (not active)
- EC50 [7]: > 120 µM (not active)

Structure (SMILES): Cc1cc2nc(-c3ccc(SCC(=O)N4CCN(C(=O)c5ccco5)CC4)nc3)[nH]c2cc1C
- IC50 [8]: 3.63 µM (active)

Structure (SMILES): CCCN(CC(=O)Nc1ccc(F)c(F)c1F)C(=O)CCc1nc(O)c2ccccc2n1
- IC50 (H9c2): 9.51 µM (active)

Structure (SMILES): O=C(Cc1ccc(N2CCNC2=O)cc1)N1CCCC(Nc2cccc(F)c2)C1 (stereo unspecified)
- EC50 [5]: 2.72 µM (active)
- EC50 [6]: 5.11 µM (active)
- EC50 [7]: 9.37 µM (inconclusive)

Structure (SMILES): CC1CCN(c2ccccc2NC(=S)NC(=O)c2ccco2)CC1
- IC50 [1]: > 66 µM (inactive)
- IC50 [2]: > 66 µM (inactive)

Structure (SMILES): CCOc1ccc(NC(=O)CSc2nnnn2CC(=O)O)cc1
- IC50 (Leucine aminopeptidase): 6.69 µM (active)

Structure (SMILES): O=C(O)CCCCCN1C(=O)/C(=C\c2ccc(-c3ccc(Cl)cc3)o2)SC1=S
- IC50 [8]: 1.27 µM (active)

Structure (SMILES): O=C(CSc1nnc(-c2cccnc2)n1Cc1ccco1)c1ccccc1
- IC50 (H9c2): 32.4 µM (inactive)

Structure (SMILES): COc1cccc(N2CCN(C3=C(Cl)C(=O)N(c4ccc([N+](=O)[O-])cc4)C3=O)CC2)c1
- IC50 [9]: > 50 µM (inconclusive)

Structure (SMILES): COC(=O)c1sc(=S)n(-c2cc(F)ccc2F)c1N
- IC50 [1]: > 66 µM (inactive)
- IC50 [2]: > 66 µM (inactive)

Structure (SMILES): O=C(Cn1nnc2ccccc2c1=O)Nc1ccc2c(c1)CCC2
- IC50 (Leucine aminopeptidase): 1.51 µM (active)

Structure (SMILES): Oc1nc2cccc(F)c2n2cccc12
- IC50 (H9c2): > 79 µM (inactive)
- CC50 [10]: 30 µM (active)

Structure (SMILES): CCCCC1CCC(c2nc(-c3ccccn3)no2)CC1 (stereo unspecified)
- EC50 [5]: > 60 µM (not active)
- EC50 [6]: 2.95 µM (active)
- AC50 (Cytochrome P450 2D6): 25.1 µM (inconclusive)
- EC50 [7]: 9.12 µM (inconclusive)
- EC50 (Streptokinase A): > 150 µM (not active)
- EC50 [11]: 16.1 µM (active)
- EC50 (Streptococcus): 21 µM (active)

Structure (SMILES): Cc1ccc(NC(=O)CCc2c[nH]c3ccccc23)nc1
- EC50 (BJ [12]): 12.6 µM (active)
- EC50 (BJ [13]): 50.4 µM (active)
- EC50 (BJ [14]): > 150 µM (inconclusive)
- EC50 [15]: 17.7 µM (active)

Structure (SMILES): CCCCCc1ccc(C(=O)CCCC)c(S)n1
- IC50 [1]: > 66 µM (inactive)
- IC50 [2]: > 66 µM (inactive)

Structure (SMILES): Cc1ccc(N(Cc2ccc(C(=O)Nc3ccccc3C(=O)NCc3ccco3)cc2)S(C)(=O)=O)cc1C
- EC50 [5]: > 120 µM (not active)
- EC50 [6]: 22.9 µM (active)
- EC50 [16]: > 260 µM (inactive)
- EC50 [7]: 17.5 µM (active)

Structure (SMILES): CCCCn1nc(NC(=O)c2cccs2)c2cc3ccccc3nc21
- IC50 (H9c2): > 79 µM (inactive)
- CC50 [10]: 25.5 µM (active)

Structure (SMILES): COc1cc(/C=C2\N=C(c3ccccc3)NNC2=O)cc(OC)c1OC
- EC50 [5]: 9.91 µM (active)
- EC50 [6]: 8.22 µM (active)
- EC50 [7]: > 120 µM (not active)

Structure (SMILES): O=C(Nc1nnc(C2CC2)s1)c1cc(-c2ccccc2)nn1-c1ccccc1
- IC50 (H9c2): 12.3 µM (active)
- CC50 [10]: 13.1 µM (active)
- EC50 (Streptokinase A): 8.32 µM (active)
- EC50 [11]: 10.1 µM (active)
- EC50 (Streptococcus): 20.8 µM (active)

Structure (SMILES): O=C1CCCC(=O)C1=NNc1ccc2ncsc2c1
- IC50 [1]: > 66 µM (inactive)
- IC50 [2]: > 66 µM (inactive)

Structure (SMILES): CC(C)Oc1ccc(C(=O)NC2(C(F)(F)F)N=C3SCCN3C2=O)cc1 (stereo unspecified)
- IC50 [1]: > 66 µM (inactive)
- IC50 [2]: > 66 µM (inactive)

Structure (SMILES): O=C(CN1C(=O)c2ccccc2S1(=O)=O)N1CCc2ccccc2C1
- EC50 [5]: 21.4 µM (active)
- EC50 [6]: 12.6 µM (active)
- EC50 [7]: 25.5 µM (active)

Structure (SMILES): C/C(=N\NC(=O)c1ccccc1-n1cccc1)c1ccccn1
- IC50 (H9c2): 38.8 µM (inactive)

Structure (SMILES): O=C(O)c1ccc(N/N=C/C2=C(N3CCOCC3)C(=C\c3ccccc3)/CC2)cc1
- IC50 [8]: 4.44 µM (active)

Structure (SMILES): COC(=O)/C(=C(O)\C=C\c1ccccc1[N+](=O)[O-])c1nc2ccccc2[nH]1
- IC50 (H9c2): > 79 µM (inactive)

Structure (SMILES): CC(/C=N/NC(=O)c1cc(-c2ccc(Cl)cc2)nc2ccccc12)=C\c1ccco1
- EC50 (BJ [12]): 2.07 µM (active)
- EC50 (BJ [13]): 2.73 µM (active)
- EC50 (BJ [14]): 22.4 µM (inconclusive)
- EC50 [15]: 2.58 µM (inconclusive)

Structure (SMILES): C[C@H](CO)N1C[C@H](C)[C@H](CN(C)S(=O)(=O)c2cccs2)Oc2ccc(NC(=O)Cc3cn(C)c4ccccc34)cc2CC1=O
- AC50 [3]: 0.883 µM (active)
- AC50 [4]: 12.5 µM (active)

Structure (SMILES): COc1cccc(Nc2ncnc3[nH]cnc23)c1
- IC50 (Leucine aminopeptidase): 95.1 µM (active)

Reference: ChEMBL document CHEMBL1201862, “PubChem BioAssay data set” (2004)
